Data: US20240043400A1, “Octahydroisoquinolinyl Derivatives” (UCB Biopharma SRL, priority 2020, published 2024)

Experiments:
[1] = biological target: T1, dopamine D1 receptor (Homo sapiens, UniProt P21728); experiment: cAMP HTRF potentiation assay (in the presence of dopamine); format: cell-based; conditions: potentiation of cAMP with [EC20] of dopamine (1.1 nM); LMtk (Ltk−) mouse fibroblast cells expressing the dopamine D1 receptor
T1 construct: host or cells: LMtk (Ltk-) mouse fibroblast cells, kept under Geneticin
T1 sequence (P21728 whole entry): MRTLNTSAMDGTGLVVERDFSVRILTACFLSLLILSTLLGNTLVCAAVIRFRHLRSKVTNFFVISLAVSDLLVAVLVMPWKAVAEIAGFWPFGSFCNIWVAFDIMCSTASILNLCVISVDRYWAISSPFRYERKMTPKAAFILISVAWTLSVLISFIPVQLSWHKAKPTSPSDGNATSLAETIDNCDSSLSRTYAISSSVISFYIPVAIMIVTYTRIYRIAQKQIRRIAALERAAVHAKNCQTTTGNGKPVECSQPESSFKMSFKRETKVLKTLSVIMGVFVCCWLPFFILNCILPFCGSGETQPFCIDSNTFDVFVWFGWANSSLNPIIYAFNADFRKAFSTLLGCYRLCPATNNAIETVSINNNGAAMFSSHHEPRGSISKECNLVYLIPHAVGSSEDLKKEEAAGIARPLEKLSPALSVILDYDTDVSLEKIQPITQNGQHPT
Procedure: The potentiation assay measures the ability of compounds to increase the levels of cAMP produced by a low-threshold concentration of dopamine. The concentration of dopamine used ([EC20]) is designed to produce 20% stimulation compared to the maximal response (100%) seen with increasing the concentration of dopamine. To measure this potentiation we incubate increasing concentrations of the compound with the [EC20] of dopamine and measure the potentiation as increases in cAMP production. The pEC50 of a compound is the −log 10 of the concentration of the compound which produces 50% of the potentiation of the cAMP levels and the Erel is the relative efficacy, defined as the maximal % potentiation produced by the compound compared to the maximal response produced by increasing concentrations of dopamine (Erel of 1=dopamine maximum response).
Cells were cultured at 37° C. in a humidified atmosphere of 5% CO2. Cells were grown in DMEM-F12+GlutaMAX™-1 medium (GIBCO®, Invitrogen, Merelbeke, Belgium) containing 10% fetal bovine serum (BioWhittaker®, Lonza, Verviers, Belgium), 400 μg/mL Geneticin (GIBCO®), 100 IU/mL Penicillin and 100 IU/mL Streptomycin (Pen-Strep solution, BioWhittaker®).
The measurement of changes in intracellular cyclic adenosinemonophopshpate (cAMP) was determined using the HTRF cAMP dynamic assay kit from CisBio (Codolet, France). Using homogenous time-resolved fluoresence technology, the assay is based on competition between native cAMP produced by cells and cAMP labelled with the dye d2. The tracer binding is determined by an anti-cAMP antibody labeled with cryptate. The effects of the compound alone (agonism) was determined by performing the assay in the absence of dopamine, whilst the effect of the compound as a positive allosteric modulator (PAM) was determined in the presence of an EC20 concentration of dopamine. Cells (20,000 per well) are incubated in 384 plates for 1 h at rt in a final volume of 20 μLHBSS (Lonza, with calcium, magnesium and HEPES buffer 20 mM, pH 7.4) containing: isobutyl methylxanthine (Sigma, 0.1 mM final), varying concentrations of test compound (typically 10^−9.5 M to 10^−4.5 M) in the presence and absence of dopamine (1.1 nM final). The reaction is then terminated and the cells lysed by adding the d2 detection reagent in lysis buffer (10 μL) and the cryptate reagent in lysis buffer (10 μL) according to manufacturer's instructions. This is then incubated for a further 60 min at rt and changes in HTRF fluorescent emission ratio determined according to manufacturer's instructions using an Envision plate reader (Perkin Elmer, Zaventem, Belgium) with laser excitation. All incubations were performed in duplicate and results were compared to a concentration-effect curve to dopamine. (10^−11 M to 10^−6 M).
Data was analyzed using Excel and PRISM (GraphPad Software) to obtain pEC50 and Erel using the 4-parameter logistic equation (DeLean et al, 1978) where Erel is the fitted maximal response of the test compound minus basal expressed as a percentage relative to that obtained with dopamine which was defined as 100%.

[2] = biological target: T2, human GABAA receptor α1β2 and γ2 subunits (Homo sapiens, UniProt P14867+P18507+P47870); experiment: Automated patch clamp studies on the GABAA receptor cells; format: cell-based; conditions: CHO-K1, 10 μM compound, 15 μM GABA, Table B
T2 construct: expressed in transfected cells
T2 sequence (P14867 28-456): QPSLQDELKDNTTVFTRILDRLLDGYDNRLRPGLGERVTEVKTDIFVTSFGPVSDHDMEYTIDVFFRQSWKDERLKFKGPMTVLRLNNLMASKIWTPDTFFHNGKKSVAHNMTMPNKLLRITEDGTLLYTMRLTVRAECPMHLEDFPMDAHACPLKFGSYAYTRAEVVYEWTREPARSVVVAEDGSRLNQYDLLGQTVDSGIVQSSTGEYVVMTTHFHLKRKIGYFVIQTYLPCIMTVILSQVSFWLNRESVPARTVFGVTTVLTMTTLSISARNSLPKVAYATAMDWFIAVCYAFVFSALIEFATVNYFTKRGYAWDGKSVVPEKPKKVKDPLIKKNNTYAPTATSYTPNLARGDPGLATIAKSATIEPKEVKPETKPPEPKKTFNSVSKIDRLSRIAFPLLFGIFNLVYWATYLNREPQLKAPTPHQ
T2 sequence (P47870 25-512 limits assumed): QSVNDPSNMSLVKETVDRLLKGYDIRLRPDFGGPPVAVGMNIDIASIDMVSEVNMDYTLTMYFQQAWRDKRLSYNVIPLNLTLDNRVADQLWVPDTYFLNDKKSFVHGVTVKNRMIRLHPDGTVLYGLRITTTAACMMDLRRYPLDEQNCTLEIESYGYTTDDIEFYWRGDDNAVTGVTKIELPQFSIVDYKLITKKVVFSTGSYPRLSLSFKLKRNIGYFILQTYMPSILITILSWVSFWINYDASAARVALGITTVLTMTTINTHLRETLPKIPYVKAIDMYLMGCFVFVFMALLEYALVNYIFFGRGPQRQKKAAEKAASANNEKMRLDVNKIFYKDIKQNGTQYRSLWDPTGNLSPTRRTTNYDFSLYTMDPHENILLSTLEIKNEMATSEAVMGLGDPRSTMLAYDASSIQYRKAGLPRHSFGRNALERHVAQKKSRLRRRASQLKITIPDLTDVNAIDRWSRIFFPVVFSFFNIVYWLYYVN
T2 sequence (P18507 40-475): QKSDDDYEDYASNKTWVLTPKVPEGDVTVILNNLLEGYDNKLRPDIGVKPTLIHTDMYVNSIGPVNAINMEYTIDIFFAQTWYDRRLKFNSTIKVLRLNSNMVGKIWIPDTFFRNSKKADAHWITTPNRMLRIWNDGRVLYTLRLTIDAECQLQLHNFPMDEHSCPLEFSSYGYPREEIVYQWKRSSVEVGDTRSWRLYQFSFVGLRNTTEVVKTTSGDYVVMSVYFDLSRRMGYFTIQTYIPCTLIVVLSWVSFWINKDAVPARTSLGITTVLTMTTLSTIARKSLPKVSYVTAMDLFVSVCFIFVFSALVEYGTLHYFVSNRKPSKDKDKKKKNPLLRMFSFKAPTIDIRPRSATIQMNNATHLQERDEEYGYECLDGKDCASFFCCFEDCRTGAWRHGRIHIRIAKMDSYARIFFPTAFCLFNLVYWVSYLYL
Procedure: CHO-K1 cells stably expressing human GABAA receptor α1β2 and γ2 subunits were used. The cells were harvested using trypsin and maintained in serum-free medium at room temperature. The cells were washed and re-suspended in extracellular solution before testing.
Experiments on human GABAA (α1β2γ2) channels were conducted using an automated patch clamp assay (lonFlux™ HT). The external solution for recording GABAA currents was composed of sodium chloride 137 mM, potassium chloride 4 mM, calcium chloride 1.8 mM, magnesium chloride 1 mM, HEPES 10 mM, and glucose 10 mM. Both external and internal solutions were titrated with NaOH or KOH to obtain a pH of 7.35 and 7.3, respectively. The internal pipette solution contained potassium fluoride 70 mM, potassium chloride 60 mM, sodium chloride 70 mM, HEPES 5 mM, EGTA 5 mM, and Magnesium ATP 4 mM. The final concentration of vehicle used to dilute compounds was 0.33% DMSO in each well. Bicuculline (0.032 to 100 μM) was used as positive control inhibitor. GABA (15 μM) was used as agonist. All recordings were obtained from a holding potential of −60 mV.
The compound addition sequence was the following: one addition of the EC80 concentration of GABA was added to establish baseline response. Each concentration of compound was applied for 30 seconds followed by the addition of 15 μM GABA in the presence of the compound for 2 seconds. The process was repeated with the next ascending concentration of compound. Peak inward currents in response to the GABA additions in the presence of a single concentration of compound were measured. All compound data have been normalized to the baseline peak current induced by addition of 15 μM GABA for 2 seconds.

[3] = biological target: T3, CYP3A4 (Homo sapiens, UniProt P08684); experiment: In vitro assessment of CYP3A4 inhibition potential using cryopreserved human microsomes; format: in vitro ADME; conditions: human, cryopreserved human microsomes (pooled donors), probe midazolam 2.5 μM (1-hydroxymidazolam formation), 20 μM compound, human microsomes 0.25 mg/ml, Table C
T3 construct: cryopreserved human microsomes (pooled donors); from tissue
T3 sequence (P08684 whole entry): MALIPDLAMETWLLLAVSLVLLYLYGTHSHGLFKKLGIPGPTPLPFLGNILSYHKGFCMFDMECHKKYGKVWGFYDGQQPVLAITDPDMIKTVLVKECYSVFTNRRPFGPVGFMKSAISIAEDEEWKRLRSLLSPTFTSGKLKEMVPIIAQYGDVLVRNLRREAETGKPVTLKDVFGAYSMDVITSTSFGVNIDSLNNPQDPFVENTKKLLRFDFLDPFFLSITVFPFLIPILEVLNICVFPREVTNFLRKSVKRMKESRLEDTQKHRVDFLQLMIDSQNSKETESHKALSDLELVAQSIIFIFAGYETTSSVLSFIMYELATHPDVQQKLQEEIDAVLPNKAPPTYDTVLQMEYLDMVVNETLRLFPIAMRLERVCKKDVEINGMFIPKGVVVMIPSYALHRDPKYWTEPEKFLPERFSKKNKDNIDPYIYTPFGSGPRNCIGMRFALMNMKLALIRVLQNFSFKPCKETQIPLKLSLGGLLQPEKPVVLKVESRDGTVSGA
Procedure: The objective of the human microsome assay is to characterize the inhibition potential of Compound of formula (I) by measuring the CYP3A4 activities after its co-incubation with midazolam, a specific CYP3A4 substrate.
To this aim, cryopreserved human microsomes (pooled donors) are divided on a 48 well collagen coated plate so that the final concentration is 0.25 mg/ml. The UCB compound is then added in the wells at 20 μM concentration in duplicate. After 30 min incubation, midazolam is added at 2.5 μM concentration. After 15 min, an aliquot is removed and placed into an equal volume of methanol containing internal standard. The samples are centrifuged at 2500 rpm at 4° C. for 20 min. An aliquot of supernatant is diluted with deionised water and levels of 1-hydroxymidazolam is quantified using generic LC MS/MS methods.
The concentrations are compared to those obtained after midazolam incubation at the same concentration but without UCB compound pre-incubation. The results are expressed as % of inhibition.

Row | SMILES | EC50 [1] | inhibition at 10 µM [2] | inhibition at 15 min, 20 μM [3]
1 | COc1ccc(Cl)c(CC(=O)N2CC[C@H]3[C@H]([C@H](O)C(F)(F)F)CCC[C@@H]3[C@@H]2C)c1C#N [Example 2, 2-[2-[(1S,4aR,5R,8aS)-1-methyl-5-[(1S)-2,2,2-trifluoro-1-hydroxyethyl]-3,4,4a,5,6,7,8,8a-octahydro-1H-isoquinolin-2-yl]-2-oxoethyl]-3-chloro-6-methoxybenzonitrile] | 39.8 nM | 0% | 20 to 40%
2 | C[C@H]1[C@H]2CCC[C@@H]([C@H](O)C(F)(F)F)[C@@H]2CCN1C(=O)Cc1c(Cl)cc(F)c2[nH]nc(Cl)c12 [Example 14, 1-[(1 S,4aR,5R,8aS)-1-methyl-5-[(1 S)-2,2,2-trifluoro-1-hydroxy-ethyl]-3,4,4a,5,6,7,8,8a-octahydro-1H-isoquinolin-2-yl]-2-(3,5-dichloro-7-fluoro-1H-indazol-4-yl)ethanone] | 31.6 nM | -8% | 40 to 60%
